The text below walks through data of ChEMBL document CHEMBL4190317, “Design, synthesis, and biological evaluation of novel 3-substituted imidazo[1,2-a]pyridine and quinazolin-4(3H)-one derivatives as PI3Kα inhibitors” (Eur J Med Chem, 2017).

Each structure is given as a SMILES string. pIC50: −log10 of the molar value. Activity calls are given as the source filed them. No cut-off for these calls is given here.

One assay relates to HCT-116. The experiment in a line: cells. The conditions noted are these: Homo sapiens, HCT-116, 72 h.
The test system of a further assay is A549. The experiment in a line: cells. The following applies: Homo sapiens, A549, 72 h.
The test system of a further assay is MDA-MB-231. Nature of the assay: Antiproliferative activity against human MDA-MB-231 cells after 72 hrs by SRB assay. The following applies: MDA-MB-231, 72 h.
In another assay the test system is SK-HEP1. The experiment in a line: Antiproliferative activity against human SKHEP1 cells after 72 hrs by SRB assay. The following applies: SK-HEP1, 72 h.
Another assay deals with SNU-638. Nature of the assay: Antiproliferative activity against human SNU638 cells after 72 hrs by SRB assay. The conditions noted are these: SNU-638, 72 h. (Sulforhodamine B stains cellular protein and so reports cell mass.)
For assay [1], the species on record is Homo sapiens. Nature of the assay: Inhibition of PI3K in human HCT116 cells assessed as reduction in Akt phosphorylation at Ser473 residue at 0.5 uM after 24 hrs by Western blot analysis. The class given is cell-based.
The target in assay [2] is Phosphatidylinositol 4,5-bisphosphate 3-kinase catalytic subunit gamma isoform (Homo sapiens, UniProt P48736). Nature of the assay: Inhibition of N-terminal His6-tagged recombinant full-length human PI3Kgamma expressed in baculovirus infected Sf21 insect cells using PIP2 as substrate by HTRF […] assay.
Sequence of Phosphatidylinositol 4,5-bisphosphate 3-kinase catalytic subunit gamma isoform (P48736 whole entry, canonical isoform): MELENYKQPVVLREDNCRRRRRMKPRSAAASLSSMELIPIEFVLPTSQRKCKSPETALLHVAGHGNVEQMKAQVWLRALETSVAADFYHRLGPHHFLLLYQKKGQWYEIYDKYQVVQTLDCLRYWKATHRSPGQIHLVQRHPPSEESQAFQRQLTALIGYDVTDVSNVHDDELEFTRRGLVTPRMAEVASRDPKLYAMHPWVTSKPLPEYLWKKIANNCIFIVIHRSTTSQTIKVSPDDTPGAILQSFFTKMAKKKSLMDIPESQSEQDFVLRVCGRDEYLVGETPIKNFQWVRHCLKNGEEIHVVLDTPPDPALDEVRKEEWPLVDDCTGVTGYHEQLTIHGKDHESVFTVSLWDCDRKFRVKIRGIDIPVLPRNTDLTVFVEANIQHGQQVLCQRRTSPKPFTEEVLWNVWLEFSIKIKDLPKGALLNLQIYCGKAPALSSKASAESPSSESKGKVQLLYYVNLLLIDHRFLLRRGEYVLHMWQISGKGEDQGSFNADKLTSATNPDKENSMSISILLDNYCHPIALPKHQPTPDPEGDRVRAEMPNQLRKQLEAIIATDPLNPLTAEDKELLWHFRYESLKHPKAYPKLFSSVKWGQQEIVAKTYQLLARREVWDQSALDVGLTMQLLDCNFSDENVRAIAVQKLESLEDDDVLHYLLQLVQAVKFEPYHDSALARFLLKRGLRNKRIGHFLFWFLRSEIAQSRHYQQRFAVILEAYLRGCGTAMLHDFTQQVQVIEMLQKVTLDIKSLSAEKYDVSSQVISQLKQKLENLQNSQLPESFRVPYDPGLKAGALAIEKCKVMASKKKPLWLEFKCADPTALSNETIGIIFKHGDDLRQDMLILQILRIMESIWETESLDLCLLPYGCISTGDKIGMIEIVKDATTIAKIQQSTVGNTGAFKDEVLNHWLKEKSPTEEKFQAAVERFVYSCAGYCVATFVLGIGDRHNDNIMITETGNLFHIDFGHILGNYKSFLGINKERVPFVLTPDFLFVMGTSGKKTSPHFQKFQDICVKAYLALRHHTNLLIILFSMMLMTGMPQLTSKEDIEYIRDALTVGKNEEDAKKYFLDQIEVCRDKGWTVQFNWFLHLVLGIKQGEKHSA
Assay [3] has as its target Phosphatidylinositol 4,5-bisphosphate 3-kinase catalytic subunit beta isoform (Homo sapiens, UniProt P42338). The experiment in a line: Inhibition of PI3Kbeta (unknown origin) using PIP2 as substrate by HTRF […] assay. For orientation: Time-resolved FRET reads energy transfer from a long-lived donor to a nearby acceptor.
The species entered for assay [4] is Homo sapiens. Nature of the assay: Inhibition of PI3K in human HCT116 cells assessed as reduction in Akt phosphorylation at Ser473 residue after 24 hrs by Western blot analysis. It counts as cell-based. Background: In western blotting, separated proteins are transferred to a membrane and probed.
The subject of the next assay is HUVEC. Nature of the assay: Cytotoxicity against HUVEC after 72 hrs by SRB assay. The following applies: Homo sapiens.
For assay [5], the target named is PI3-kinase p110-delta/p85-alpha (Homo sapiens, UniProt O00329). Nature of the assay: Inhibition of p110delta/p85alpha (unknown origin) using PIP2 as substrate by HTRF […] assay. It counts as protein-complex assay.
Sequence of PI3-kinase p110-delta/p85-alpha (P27986 whole entry): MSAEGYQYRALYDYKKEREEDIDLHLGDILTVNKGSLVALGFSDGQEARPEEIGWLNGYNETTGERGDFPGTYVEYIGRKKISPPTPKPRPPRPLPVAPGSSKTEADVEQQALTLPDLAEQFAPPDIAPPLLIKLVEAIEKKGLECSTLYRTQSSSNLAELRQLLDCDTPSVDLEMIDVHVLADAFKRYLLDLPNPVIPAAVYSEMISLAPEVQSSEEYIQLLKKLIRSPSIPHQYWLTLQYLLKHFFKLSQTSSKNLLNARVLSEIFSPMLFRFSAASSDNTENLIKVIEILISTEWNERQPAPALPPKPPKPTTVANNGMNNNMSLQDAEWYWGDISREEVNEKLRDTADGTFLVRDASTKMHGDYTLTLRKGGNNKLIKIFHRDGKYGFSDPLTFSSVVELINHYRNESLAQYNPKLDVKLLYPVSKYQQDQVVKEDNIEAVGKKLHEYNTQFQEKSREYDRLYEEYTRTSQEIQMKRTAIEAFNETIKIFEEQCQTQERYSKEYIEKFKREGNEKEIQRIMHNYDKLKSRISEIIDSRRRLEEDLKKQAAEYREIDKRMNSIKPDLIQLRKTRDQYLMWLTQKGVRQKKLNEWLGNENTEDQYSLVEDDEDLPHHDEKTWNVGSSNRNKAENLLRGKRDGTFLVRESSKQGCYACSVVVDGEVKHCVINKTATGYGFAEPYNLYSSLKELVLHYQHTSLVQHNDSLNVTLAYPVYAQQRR
Sequence of PI3-kinase p110-delta/p85-alpha (O00329 whole entry): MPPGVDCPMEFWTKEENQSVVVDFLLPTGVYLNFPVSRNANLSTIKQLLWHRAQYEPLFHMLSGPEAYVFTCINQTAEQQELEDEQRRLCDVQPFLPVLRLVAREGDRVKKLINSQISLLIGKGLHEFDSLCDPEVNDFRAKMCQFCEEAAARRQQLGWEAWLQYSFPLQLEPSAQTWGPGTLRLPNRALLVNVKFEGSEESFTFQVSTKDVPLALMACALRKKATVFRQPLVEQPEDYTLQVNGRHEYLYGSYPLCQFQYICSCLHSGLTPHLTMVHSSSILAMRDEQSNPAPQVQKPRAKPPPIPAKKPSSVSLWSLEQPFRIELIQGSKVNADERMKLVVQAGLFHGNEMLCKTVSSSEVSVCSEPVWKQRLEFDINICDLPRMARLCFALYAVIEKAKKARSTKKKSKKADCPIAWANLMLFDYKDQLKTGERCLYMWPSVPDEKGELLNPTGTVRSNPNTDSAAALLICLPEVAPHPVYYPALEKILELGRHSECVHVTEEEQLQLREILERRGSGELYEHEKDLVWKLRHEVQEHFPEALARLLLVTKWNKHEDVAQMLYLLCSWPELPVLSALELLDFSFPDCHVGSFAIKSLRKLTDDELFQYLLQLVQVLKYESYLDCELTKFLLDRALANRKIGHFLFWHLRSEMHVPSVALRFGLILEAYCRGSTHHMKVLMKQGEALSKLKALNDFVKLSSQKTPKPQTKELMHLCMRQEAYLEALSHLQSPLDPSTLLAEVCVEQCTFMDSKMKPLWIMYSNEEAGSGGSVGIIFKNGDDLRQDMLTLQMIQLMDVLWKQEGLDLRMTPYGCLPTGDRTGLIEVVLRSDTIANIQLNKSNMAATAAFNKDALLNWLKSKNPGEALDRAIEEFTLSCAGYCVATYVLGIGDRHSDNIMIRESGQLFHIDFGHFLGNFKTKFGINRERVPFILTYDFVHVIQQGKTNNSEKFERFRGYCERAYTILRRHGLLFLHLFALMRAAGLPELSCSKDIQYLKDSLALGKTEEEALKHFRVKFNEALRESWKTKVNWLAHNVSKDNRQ
Assay [6] concerns the target PI3-kinase p110-alpha/p85-alpha (Homo sapiens, UniProt P42336). The experiment in a line: Inhibition of N-terminal His6-tagged recombinant full-length human p110alpha/untagged recombinant full length human p85alpha expressed in baculovirus infected Sf21 insect cells using PIP2 as substrate by HTRF […] assay.

Sequence of Phosphatidylinositol 4,5-bisphosphate 3-kinase catalytic subunit beta isoform (P42338 whole entry, canonical isoform): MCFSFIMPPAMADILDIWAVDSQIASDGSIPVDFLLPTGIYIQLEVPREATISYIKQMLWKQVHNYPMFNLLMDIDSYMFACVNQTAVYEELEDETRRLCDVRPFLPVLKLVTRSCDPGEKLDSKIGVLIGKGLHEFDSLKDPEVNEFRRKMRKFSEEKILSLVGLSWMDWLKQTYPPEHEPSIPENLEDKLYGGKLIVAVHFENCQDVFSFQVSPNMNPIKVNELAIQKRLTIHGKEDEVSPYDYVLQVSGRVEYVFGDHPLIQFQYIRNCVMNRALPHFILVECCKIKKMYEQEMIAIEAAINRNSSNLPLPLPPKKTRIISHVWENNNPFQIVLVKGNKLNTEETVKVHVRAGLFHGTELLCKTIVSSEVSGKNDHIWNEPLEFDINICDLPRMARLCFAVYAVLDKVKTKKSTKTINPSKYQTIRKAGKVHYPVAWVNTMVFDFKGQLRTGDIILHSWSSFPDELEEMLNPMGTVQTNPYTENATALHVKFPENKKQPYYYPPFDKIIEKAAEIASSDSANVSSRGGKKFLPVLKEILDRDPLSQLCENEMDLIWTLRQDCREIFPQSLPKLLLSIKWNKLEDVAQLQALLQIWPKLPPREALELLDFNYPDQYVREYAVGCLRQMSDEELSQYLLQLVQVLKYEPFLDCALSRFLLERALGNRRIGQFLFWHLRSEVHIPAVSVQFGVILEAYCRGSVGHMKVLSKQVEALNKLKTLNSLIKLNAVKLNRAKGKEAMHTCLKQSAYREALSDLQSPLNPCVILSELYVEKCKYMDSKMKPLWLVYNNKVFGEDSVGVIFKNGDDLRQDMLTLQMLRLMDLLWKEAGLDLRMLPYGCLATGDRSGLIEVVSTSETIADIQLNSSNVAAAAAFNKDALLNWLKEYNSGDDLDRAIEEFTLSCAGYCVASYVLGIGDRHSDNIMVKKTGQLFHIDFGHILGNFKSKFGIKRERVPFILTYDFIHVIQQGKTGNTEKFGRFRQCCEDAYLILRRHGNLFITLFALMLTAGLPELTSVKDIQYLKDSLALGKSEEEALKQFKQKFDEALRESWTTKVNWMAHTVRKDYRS
Sequence of PI3-kinase p110-alpha/p85-alpha (P27986 whole entry): as the sequence (P27986 whole entry) above
Sequence of PI3-kinase p110-alpha/p85-alpha (P42336 whole entry): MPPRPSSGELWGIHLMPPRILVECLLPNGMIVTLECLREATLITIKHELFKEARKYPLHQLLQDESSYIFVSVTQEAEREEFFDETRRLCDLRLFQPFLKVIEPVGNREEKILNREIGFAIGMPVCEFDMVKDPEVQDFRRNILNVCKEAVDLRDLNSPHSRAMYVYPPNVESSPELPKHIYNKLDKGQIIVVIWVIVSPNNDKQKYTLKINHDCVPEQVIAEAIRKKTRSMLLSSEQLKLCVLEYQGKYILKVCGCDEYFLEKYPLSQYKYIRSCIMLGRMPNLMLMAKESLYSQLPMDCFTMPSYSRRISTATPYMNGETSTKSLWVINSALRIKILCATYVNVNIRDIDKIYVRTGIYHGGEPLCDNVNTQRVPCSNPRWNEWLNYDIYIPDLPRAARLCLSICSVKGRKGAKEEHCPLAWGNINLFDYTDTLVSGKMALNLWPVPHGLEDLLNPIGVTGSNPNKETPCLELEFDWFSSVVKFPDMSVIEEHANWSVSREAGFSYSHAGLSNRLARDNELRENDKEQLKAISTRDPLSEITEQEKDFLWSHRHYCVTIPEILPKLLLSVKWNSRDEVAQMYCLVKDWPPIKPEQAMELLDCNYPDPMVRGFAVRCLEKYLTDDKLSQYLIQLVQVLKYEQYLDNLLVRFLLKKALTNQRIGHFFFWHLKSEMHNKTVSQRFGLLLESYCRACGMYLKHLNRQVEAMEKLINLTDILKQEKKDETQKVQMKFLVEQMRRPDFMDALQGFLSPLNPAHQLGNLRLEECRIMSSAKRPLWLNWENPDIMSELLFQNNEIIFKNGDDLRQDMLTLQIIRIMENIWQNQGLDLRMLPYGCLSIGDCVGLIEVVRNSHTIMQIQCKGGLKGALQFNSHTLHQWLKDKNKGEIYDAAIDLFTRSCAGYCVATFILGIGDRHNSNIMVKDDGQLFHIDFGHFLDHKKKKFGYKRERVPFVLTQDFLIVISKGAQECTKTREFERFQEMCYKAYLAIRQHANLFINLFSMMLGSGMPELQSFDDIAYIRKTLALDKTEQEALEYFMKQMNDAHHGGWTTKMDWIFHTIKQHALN
Description for A549: Antiproliferative activity against human A549 cells after 72 hrs by SRB assay

Turning to `CCOC(=O)Cn1cnc2ccc(-c3cnc(OC)c(NS(=O)(=O)c4ccc(F)cc4F)c3)cc2c1=O`, the pIC50 in the assay on HCT-116 was 6.09; in the assay on A549, 7.00; in the assay on MDA-MB-231, 6.92; with SK-HEP1, 5.85; in the assay on SNU-638 it was 6.52.
Consider `COc1ncc(-c2ccc3ncc(C(=O)NCCN(C)C)n3c2)cc1NS(=O)(=O)c1ccc(F)cc1F`, for which the pIC50 was 6.85 in the assay on HCT-116; 6.40 with A549; 5.74 in the assay on MDA-MB-231; below 4.70 in the assay on SK-HEP1; 6.29 in the assay with SNU-638.
The like results for `CCOC(=O)c1cc2cc(-c3cnc(OC)c(NS(=O)(=O)c4ccc(F)cc4)c3)ccc2[nH]1` were, in that order, 5.89, below 4.70, 6.82, 6.52 and 4.80.
The like results for `CCOC(=O)c1cnc2ccc(-c3cnc(OC)c(NS(=O)(=O)c4ccc(F)cc4)c3)cn12` were, in that order, 6.19, 6.29, 6.28, below 4.70 and below 4.70.
In the same order, the values of `COc1ncc(-c2ccc3ncn(CCCCC(=O)N4CCOCC4)c(=O)c3c2)cc1NS(=O)(=O)c1ccc(F)cc1F` are 5.95, 5.60, 5.74, 5.65 and below 4.70.
For `COc1ncc(-c2ccc3ncn(CCCn4ccnc4)c(=O)c3c2)cc1NS(=O)(=O)c1ccc(F)cc1F`, the negative logarithm of the IC50 (pIC50) in the assay on HCT-116 was 6.10; with A549, 6.70; with MDA-MB-231, 4.93; with SK-HEP1, below 4.70; with SNU-638 it was 6.60.
Turning to `CCOC(=O)c1cnc2ccc(-c3cncc(NS(=O)(=O)c4ccccc4)c3)cn12`, the negative logarithm of the IC50 (pIC50) with HCT-116 was 6.27; in the assay with A549 it was 6.59; in assay [2], 6.98; with MDA-MB-231, 6.12; in the assay with SK-HEP1 it was 5.96; in assay [3], 7.23. The pIC50 with SNU-638 was 6.17. Also, the inhibition entry in the assay listed under Homo sapiens [1] is “Active”.
Regarding `CCOC(=O)c1cnc2ccc(-c3cnc(OC)c(NS(=O)(=O)c4ccc(F)cc4F)c3)cn12`, the pIC50 in the assay on HCT-116 is 7.05; with A549 it was 6.52; in the assay with MDA-MB-231, 6.92; in the assay with SK-HEP1, 6.52; in the assay with SNU-638, 6.44.
Regarding `COc1ncc(-c2ccc3ncn(CCCCCC(=O)N4CCOCC4)c(=O)c3c2)cc1NS(=O)(=O)c1ccc(F)cc1F`, the negative logarithm of the IC50 (pIC50) is 5.65 in the assay with HCT-116; 5.12 in the assay on A549; 5.67 in the assay on MDA-MB-231; 4.94 in the assay on SK-HEP1; 4.71 in the assay on SNU-638.
`COc1ncc(-c2ccc3ncc(C(=O)NCCN4CCOCC4)n3c2)cc1NS(=O)(=O)c1ccc(F)cc1F`: the pIC50 in assay [2] is 7.35; in assay [3], 7.05. The inhibition result in the assay listed under Homo sapiens [4] was “Dose-dependent effect”.
For `COc1ncc(-c2ccc3ncn(CCCN4CCOCC4)c(=O)c3c2)cc1NS(=O)(=O)c1ccc(F)cc1F`, the negative-log IC50 (pIC50) in the assay on HCT-116 was 6.70; in the assay with A549, 7.00; in the assay on HUVEC, 5.05; in assay [5], 7.16; in assay [6] it was 8.19; in [2], 6.94. Also, the pIC50 in the assay on MDA-MB-231 is 6.30; in the assay with SK-HEP1, 6.22; in assay [3], 6.97; in the assay with SNU-638 it was 6.55.
On to `COc1ncc(-c2ccc3ncc(C(=O)NCCCN4CCOCC4)n3c2)cc1NS(=O)(=O)c1ccc(F)cc1F`, for which the pIC50 in the assay on HCT-116 is 7.00; in the assay with A549, 6.30; with HUVEC it was 5.45; in [5], 7.00; in [6], 8.42; in assay [2], 7.43. Further, the negative logarithm of the IC50 (pIC50) was 6.52 with MDA-MB-231, 6.40 with SK-HEP1, 6.97 in assay [3] and 6.52 in the assay on SNU-638.
On to `COc1ncc(-c2ccc3ncc(C(=O)N4CCC(O)CC4)n3c2)cc1NS(=O)(=O)c1ccc(F)cc1F`, for which the pIC50 is 6.31 in the assay on HCT-116; 6.32 in the assay with A549; 6.20 in the assay with MDA-MB-231; 6.10 with SK-HEP1; 6.57 with SNU-638.
In the same order, the values of `CCOC(=O)c1cnc2ccc(-c3cnc(OC)c(NS(C)(=O)=O)c3)cn12` are 6.49, 6.64, 6.72, 6.77 and 7.05.
On to `COc1ncc(-c2ccc3ncc(C(=O)NCc4ccncc4)n3c2)cc1NS(=O)(=O)c1ccc(F)cc1F`, for which the pIC50 in the assay with HCT-116 was 6.51; with A549, 6.30; with MDA-MB-231, 6.38; with SK-HEP1 it was 6.01; in the assay with SNU-638 it was 6.31.
Take `CCCCS(=O)(=O)Nc1cc(-c2ccc3ncc(C(=O)OCC)n3c2)cnc1OC`: the negative logarithm of the IC50 (pIC50) was 5.31 in the assay with HCT-116; 5.45 in the assay on A549; 5.63 in the assay on MDA-MB-231; 6.08 in the assay on SK-HEP1; 6.29 in the assay on SNU-638.
The like results for `CCOC(=O)c1cn2cc(-c3cnc(OC)c(NS(=O)(=O)c4ccc(F)cc4)c3)ccc2n1` were, in that order, below 4.70, below 4.70, below 4.70, below 4.70 and below 4.70.
The like results for `COc1ncc(-c2ccc3ncn(CCCn4cccn4)c(=O)c3c2)cc1NS(=O)(=O)c1ccc(F)cc1F` were, in that order, 5.40, 6.70, below 4.70, below 4.70 and 6.44.
The like results for `COc1ncc(-c2ccc3ncn(CCCn4ccccc4=O)c(=O)c3c2)cc1NS(=O)(=O)c1ccc(F)cc1F` were, in that order, 5.87, 6.24, 6.82, 6.09 and 5.65.
Consider `COc1ncc(-c2ccc3ncc(C(=O)O)n3c2)cc1NS(=O)(=O)c1ccc(F)cc1F`, for which the pIC50 in the assay with HCT-116 is 5.88; in the assay on A549, 5.94; with MDA-MB-231 it was 6.43; in the assay on SK-HEP1, 6.12; in the assay with SNU-638, 5.84.
Take `COc1ncc(-c2ccc3ncc(C(=O)N4CCC(OC(=O)c5ccccc5)CC4)n3c2)cc1NS(=O)(=O)c1ccc(F)cc1F`: the pIC50 in the assay with HCT-116 is 5.91; with A549, 5.79; with MDA-MB-231, 5.84; with SK-HEP1, 5.69; in the assay on SNU-638, 5.86.

What is called pIC50 is the IC50 on a negative log10 scale, so that one unit is a factor of ten.
